Experimental data taken from ChEMBL document CHEMBL1152576, “E-Combretastatin and E-resveratrol structural modifications: antimicrobial and cancer cell growth inhibitory beta-E-nitrostyrenes” (Bioorg Med Chem, 2009).
pIC50: −log10 of the molar value. Values after ≈ are worked out from the molar mass of the structure shown. Active and inactive are the calls of the source. No cut-off for these calls is given here.

Tested on: P388
Test: Cytotoxicity against mouse P388 cells after 48 hrs by sulforhodamine B assay
Format: functional
Settings: P388, 48 h, read-out: ED50 (the source's name)

Q: Which EC50 does the source give for `COc1ccc(/C=C/[N+](=O)[O-])cc1` here?
A: 1.7 mg/L (≈ 9.49 µM)

Tested on: Escherichia coli
Test: Antimicrobial activity against Escherichia coli ATCC 25922 assessed clear zone in inhibition per disk by CLSI disk diffusion susceptibility assay
Format: functional
Settings: not given

Q: Which MIC does the source give for `COc1ccc(/C=C/[N+](=O)[O-])cc1` here?
A: 6.25 µg

Tested on: Stenotrophomonas maltophilia
Test: Antimicrobial activity against Stenotrophomonas maltophilia ATCC 13637 by broth microdilution susceptibility assay
Format: functional
Settings: not given

Q: For `COc1ccc(/C=C/[N+](=O)[O-])cc1`, which MIC is on record?
A: > 64 mg/L

Tested on: KM-20L2
Test: Cytotoxicity against human KM20L2 cells after 48 hrs by sulforhodamine B assay
Format: functional
Settings: KM-20L2, 48 h

Q: With `COc1ccc(/C=C/[N+](=O)[O-])cc1` as the compound, how does the GI50 read?
A: 1.5 mg/L (≈ 8.37 µM)

Tested on: Neisseria gonorrhoeae
Test: Antimicrobial activity against Neisseria gonorrhoeae ATCC 49226 after 24 hrs by broth microdilution susceptibility assay
Format: functional
Settings: ATCC 49226, 24 h

Q: Which MBC does the source give for `COc1ccc(/C=C/[N+](=O)[O-])cc1` here?
A: 2 mg/L (≈ 11.2 µM)

Tested on: Enterobacter cloacae
Test: Antimicrobial activity against Enterobacter cloacae ATCC 13047 assessed clear zone in inhibition per disk by CLSI disk diffusion susceptibility assay
Format: functional
Settings: not given

Q: With `COc1ccc(/C=C/[N+](=O)[O-])cc1` as the compound, how does the MIC read?
A: 12.5 µg

Tested on: Enterococcus faecalis
Test: Antimicrobial activity against Enterococcus faecalis ATCC 29212 assessed clear zone in inhibition per disk by CLSI disk diffusion susceptibility assay
Format: functional
Settings: not given

Q: Which MIC does the source give for `COc1ccc(/C=C/[N+](=O)[O-])cc1` here?
A: 50 µg

Tested on: SK-MEL-5
Test: Cytotoxicity against human SK-MEL-5 cells after 48 hrs by sulforhodamine B assay
Format: functional
Settings: not given

Q: With `COc1ccc(/C=C/[N+](=O)[O-])cc1` as the compound, how does the GI50 read?
A: inactive

Tested on: not listed separately
Test: Inhibition of tubulin polymerization
Settings: not given

Q: With `COc1ccc(/C=C/[N+](=O)[O-])cc1` as the compound, how does the pIC50 read?
A: 5.24

Tested on: NCI-H460
Test: Cytotoxicity against human NCI-H460 cells after 48 hrs by sulforhodamine B assay
Format: functional
Settings: NCI-H460, 48 h

Q: For `COc1ccc(/C=C/[N+](=O)[O-])cc1`, which GI50 is on record?
A: 1.7 mg/L (≈ 9.49 µM)

Tested on: Neisseria gonorrhoeae
Test: Antimicrobial activity against Neisseria gonorrhoeae ATCC 49226 assessed clear zone of inhibition measured per disk by CLSI disk diffusion susceptibility assay
Format: functional
Settings: not given

Q: With `COc1ccc(/C=C/[N+](=O)[O-])cc1` as the compound, how does the MIC read?
A: 0.78 µg

Tested on: DU-145
Test: Cytotoxicity against human DU145 cells after 48 hrs by sulforhodamine B assay
Format: functional
Settings: DU-145, 48 h

Q: For `COc1ccc(/C=C/[N+](=O)[O-])cc1`, which GI50 is on record?
A: 1.7 mg/L (≈ 9.49 µM)

Tested on: Staphylococcus aureus
Test: Antimicrobial activity against Staphylococcus aureus ATCC 29213 assessed clear zone in inhibition per disk by CLSI disk diffusion susceptibility assay
Format: functional
Settings: not given

Q: With `COc1ccc(/C=C/[N+](=O)[O-])cc1` as the compound, how does the MIC read?
A: 12.5 µg

Tested on: Cryptococcus neoformans
Test: Antifungal activity against Cryptococcus neoformans ATCC 90112 after 48 hrs by broth microdilution susceptibility assay
Format: functional
Settings: ATCC 90112, 48 h

Q: With `COc1ccc(/C=C/[N+](=O)[O-])cc1` as the compound, how does the MFC read?
A: 16 mg/L (≈ 89.3 µM)

Tested on: Candida albicans
Test: Antifungal activity against Candida albicans ATCC 90028 after 48 hrs by broth microdilution susceptibility assay
Format: functional
Settings: ATCC 90028, 48 h

Q: Which MIC does the source give for `COc1ccc(/C=C/[N+](=O)[O-])cc1` here?
A: 8 mg/L (≈ 44.6 µM)

Tested on: SF-268
Test: Cytotoxicity against human SF268 cells after 48 hrs by sulforhodamine B assay
Format: functional
Settings: not given

Q: Which GI50 does the source give for `COc1ccc(/C=C/[N+](=O)[O-])cc1` here?
A: inactive

Tested on: Streptococcus pneumoniae
Test: Antimicrobial activity against Streptococcus pneumoniae ATCC 6303 by broth microdilution susceptibility assay
Format: functional
Settings: not given

Q: Which MIC does the source give for `COc1ccc(/C=C/[N+](=O)[O-])cc1` here?
A: > 64 mg/L

Tested on: Candida albicans
Test: Antifungal activity against Candida albicans ATCC 90028 after 24 hrs by broth microdilution susceptibility assay
Format: functional
Settings: ATCC 90028, 24 h

Q: For `COc1ccc(/C=C/[N+](=O)[O-])cc1`, which MFC is on record?
A: 16 mg/L (≈ 89.3 µM)

Tested on: Cryptococcus neoformans
Test: Antimicrobial activity against Cryptococcus neoformans ATCC 90112 assessed clear zone in inhibition per disk by CLSI disk diffusion susceptibility assay
Format: functional
Settings: not given

Q: Which MIC does the source give for `COc1ccc(/C=C/[N+](=O)[O-])cc1` here?
A: 1.56 µg

Tested on: Enterobacter cloacae
Test: Antimicrobial activity against Enterobacter cloacae ATCC 13047 by broth microdilution susceptibility assay
Format: functional
Settings: not given

Q: Which MIC does the source give for `COc1ccc(/C=C/[N+](=O)[O-])cc1` here?
A: > 64 mg/L

Tested on: Streptococcus pneumoniae
Test: Antimicrobial activity against Streptococcus pneumoniae ATCC 6303 assessed clear zone in inhibition per disk by CLSI disk diffusion susceptibility assay
Format: functional
Settings: not given

Q: With `COc1ccc(/C=C/[N+](=O)[O-])cc1` as the compound, how does the MIC read?
A: 6.25 µg

Tested on: BXPC-3
Test: Cytotoxicity against human BxPC3 cells after 48 hrs by sulforhodamine B assay
Format: functional
Settings: BXPC-3, 48 h

Q: Which GI50 does the source give for `COc1ccc(/C=C/[N+](=O)[O-])cc1` here?
A: 1.8 mg/L (≈ 10 µM)

Tested on: Staphylococcus aureus
Test: Antimicrobial activity against Staphylococcus aureus ATCC 29213 by broth microdilution susceptibility assay
Format: functional
Settings: not given

Q: With `COc1ccc(/C=C/[N+](=O)[O-])cc1` as the compound, how does the MIC read?
A: > 64 mg/L

Tested on: Candida albicans
Test: Antimicrobial activity against Candida albicans ATCC 90028 assessed clear zone in inhibition per disk by CLSI disk diffusion susceptibility assay
Format: functional
Settings: not given

Q: For `COc1ccc(/C=C/[N+](=O)[O-])cc1`, which MIC is on record?
A: 3.12 µg

Tested on: Stenotrophomonas maltophilia
Test: Antimicrobial activity against Stenotrophomonas maltophilia ATCC 13637 assessed clear zone in inhibition per disk by CLSI disk diffusion susceptibility assay
Format: functional
Settings: not given

Q: With `COc1ccc(/C=C/[N+](=O)[O-])cc1` as the compound, how does the MIC read?
A: 12.5 µg

Tested on: OVCAR-3
Test: Cytotoxicity against human OVCAR-3 cells after 48 hrs by sulforhodamine B assay
Format: functional
Settings: not given

Q: With `COc1ccc(/C=C/[N+](=O)[O-])cc1` as the compound, how does the GI50 read?
A: inactive

Tested on: A498
Test: Cytotoxicity against human A498 cells after 48 hrs by sulforhodamine B assay
Format: functional
Settings: not given

Q: For `COc1ccc(/C=C/[N+](=O)[O-])cc1`, which GI50 is on record?
A: inactive

Tested on: Neisseria gonorrhoeae
Test: Antimicrobial activity against Neisseria gonorrhoeae ATCC 49226 by broth microdilution susceptibility assay
Format: functional
Settings: not given

Q: With `COc1ccc(/C=C/[N+](=O)[O-])cc1` as the compound, how does the MIC read?
A: 2 mg/L (≈ 11.2 µM)

Tested on: Escherichia coli
Test: Antimicrobial activity against Escherichia coli ATCC 25922 by broth microdilution susceptibility assay
Format: functional
Settings: not given

Q: With `COc1ccc(/C=C/[N+](=O)[O-])cc1` as the compound, how does the MIC read?
A: > 64 mg/L

Tested on: SF-295
Test: Cytotoxicity against human SF295 cells after 48 hrs by sulforhodamine B assay
Format: functional
Settings: SF-295, 48 h

Q: Which GI50 does the source give for `COc1ccc(/C=C/[N+](=O)[O-])cc1` here?
A: 1.6 mg/L (≈ 8.93 µM)

Tested on: Micrococcus luteus
Test: Antimicrobial activity against Micrococcus luteus Presque Isle 456 assessed clear zone in inhibition per disk by CLSI disk diffusion susceptibility assay
Format: functional
Settings: not given

Q: With `COc1ccc(/C=C/[N+](=O)[O-])cc1` as the compound, how does the MIC read?
A: 50 µg

Tested on: Micrococcus luteus
Test: Antimicrobial activity against Micrococcus luteus Presque Isle 456 by broth microdilution susceptibility assay
Format: functional
Settings: not given

Q: For `COc1ccc(/C=C/[N+](=O)[O-])cc1`, which MIC is on record?
A: > 64 mg/L

Tested on: Enterococcus faecalis
Test: Antimicrobial activity against Enterococcus faecalis ATCC 29212 by broth microdilution susceptibility assay
Format: functional
Settings: not given

Q: Which MIC does the source give for `COc1ccc(/C=C/[N+](=O)[O-])cc1` here?
A: > 64 mg/L

Tested on: MCF7
Test: Cytotoxicity against human MCF7 cells after 48 hrs by sulforhodamine B assay
Format: functional
Settings: MCF7, 48 h

Q: Which GI50 does the source give for `COc1ccc(/C=C/[N+](=O)[O-])cc1` here?
A: 0.54 mg/L (≈ 3.01 µM)

Tested on: Cryptococcus neoformans
Test: Antifungal activity against Cryptococcus neoformans ATCC 90112 after 72 hrs by broth microdilution susceptibility assay
Format: functional
Settings: ATCC 90112, 72 h

Q: For `COc1ccc(/C=C/[N+](=O)[O-])cc1`, which MIC is on record?
A: 16 mg/L (≈ 89.3 µM)
